Measured values reported in patent US12336981B2, “Compounds and compositions for the inhibition of NAMPT” (Valo Health, Inc., priority 2010, dated 2025).
“And” between values parts separate entries of the source, which are not always exact repeats. Equal values may be shown once. Read-outs that look alike come from different tables or passages of the source.

How the values were obtained:
A2780 cells = assay: In-vitro cell proliferation assay (SRB), A2780 cells; format: cell-based; settings: Homo sapiens, A2780, 72 h, A2780 cells, 72 hours, read-out: A2780 IC50
Method in brief: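 Cells were plated overnight at 37° C., 5% CO2, then exposed to serially diluted compounds (0.1% DMSO final) for 72 hours. Viable cells were measured by sulforhodamine B staining after TCA fixation, read at 570 nm; media-only background was subtracted before % inhibition was calculated.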

NAMPT = target: T1, NAMPT (Homo sapiens, UniProt P43490); assay: Biochemical inhibition assay: NAMPT enzymatic reaction, NMN quantified by mass spectrometry; settings: read-out: Biochem IC50
T1 construct: His tag; host or cells: E. coli
Method in brief: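 Inhibition of E. coli-expressed His-tagged human NAMPT, measured as NMN formation by mass spectrometry after a 30 min room-temperature reaction containing 1 μM NAM, 100 μM PRPP and 2.5 mM ATP.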

T1 sequence (P43490 whole entry): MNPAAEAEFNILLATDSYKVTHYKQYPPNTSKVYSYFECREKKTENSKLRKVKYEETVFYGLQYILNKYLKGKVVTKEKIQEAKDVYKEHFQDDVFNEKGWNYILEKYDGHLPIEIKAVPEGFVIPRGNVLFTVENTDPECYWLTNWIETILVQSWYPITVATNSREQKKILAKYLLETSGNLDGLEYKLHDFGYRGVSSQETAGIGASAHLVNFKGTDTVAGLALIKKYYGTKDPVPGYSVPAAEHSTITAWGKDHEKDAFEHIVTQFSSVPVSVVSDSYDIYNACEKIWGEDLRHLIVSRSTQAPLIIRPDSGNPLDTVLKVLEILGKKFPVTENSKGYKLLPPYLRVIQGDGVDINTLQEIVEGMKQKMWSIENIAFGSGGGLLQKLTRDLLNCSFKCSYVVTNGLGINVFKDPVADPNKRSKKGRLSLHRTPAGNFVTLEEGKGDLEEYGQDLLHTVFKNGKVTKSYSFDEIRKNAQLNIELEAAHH

## Cc1ccc(S(=O)(=O)c2ccc(CNC(=O)c3ccc4nccn4c3)cc2)cn1 [N-{[4-(6-methylpyridine-3-sulfonyl)phenyl]methyl}imidazo[1,2-a]pyridine-6-carboxamide]
A2780 cells; SRB
  IC50: 13.9 nM
NAMPT; NAMPT enzymatic assay
  IC50: 21.5 nM

## CCNC(=O)c1ccc(S(=O)(=O)c2ccc(CNC(=O)c3cc4ccncc4s3)cc2)cc1
A2780 cells; SRB
  IC50: 3.3 nM
NAMPT; NAMPT enzymatic assay
  IC50: 1.5 nM

## O=C(NCc1ccc(S(=O)(=O)c2cccc(C(F)(F)F)c2Cl)cc1)c1cc2cnccc2[nH]1
A2780 cells; SRB
  IC50: 8.8 nM
NAMPT; NAMPT enzymatic assay
  IC50: 36.4 nM

## O=C(NCc1ccc(S(=O)(=O)c2cncc(N3CCCC3)c2)cc1)c1cnc2[nH]ncc2c1 [N-({4-[5-(pyrrolidin-1-yl)pyridine-3-sulfonyl]phenyl}methyl)-1H-pyrazolo[3,4-b]pyridine-5-carboxamide]
A2780 cells; SRB
  IC50: 4 nM
NAMPT; NAMPT enzymatic assay
  IC50: 17.9 nM

## COc1cc(C)c(S(=O)(=O)c2ccc(CNC(=O)c3cc4ccncc4o3)cc2)cc1C
A2780 cells; SRB
  IC50: 12.8 nM
NAMPT; NAMPT enzymatic reaction
  IC50: 12.3 nM

## COc1cc(-n2cccn2)ccc1S(=O)(=O)c1ccc(CNC(=O)c2ccc3nccn3c2)cc1 [N-[(4-{[2-methoxy-4-(1H-pyrazol-1-yl)benzene]sulfonyl}phenyl)methyl]imidazo[1,2-a]pyridine-6-carboxamide]
A2780 cells; SRB
  IC50: 3.59 nM
NAMPT; NAMPT enzymatic assay
  IC50: 21 nM

## Cn1cc(S(=O)(=O)c2ccc(CNC(=O)c3cnc4nccn4c3)cc2)cn1 [N-{[4-(1-methyl-1H-pyrazole-4-sulfonyl)phenyl]methyl}imidazo[1,2-a]pyrimidine-6-carboxamide]
A2780 cells; SRB
  IC50: 100 to 1000 nM
NAMPT; NAMPT enzymatic assay
  IC50: 8.2 nM

## COc1ccc(Cl)c(S(=O)(=O)c2ccc(CNC(=O)c3cnc4[nH]ncc4c3)cc2)c1 [N-({4-[(2-chloro-5-methoxybenzene)sulfonyl]phenyl}methyl)-1H-pyrazolo[3,4-b]pyridine-5-carboxamide]
A2780 cells; SRB
  IC50: 66.8 nM
NAMPT; NAMPT enzymatic reaction
  IC50: 24.7 nM

## O=C(NCc1ccc(S(=O)(=O)c2cccc(N3CCOCC3)c2)cc1)c1cc2ccncc2s1
A2780 cells; SRB
  IC50: 1.9 nM
NAMPT; NAMPT enzymatic assay
  IC50: 4 nM and 3.6 nM

## COc1cccc(Cl)c1S(=O)(=O)c1ccc(CNC(=O)c2cc3ccncc3s2)cc1
A2780 cells; SRB
  IC50: 2.9 nM
NAMPT; NAMPT enzymatic reaction
  IC50: 2.7 nM

## O=C(NCc1ccc(S(=O)(=O)c2ccc(C(F)(F)F)cc2)cc1)c1cc2ccncc2o1
A2780 cells; SRB
  IC50: 19.8 nM
NAMPT; NAMPT enzymatic assay
  IC50: 8.7 nM

## Cc1nc(C)c(S(=O)(=O)c2ccc(CNC(=O)c3ccc4nccn4c3)cc2)s1 [N-{[4-(dimethyl-1,3-thiazole-5-sulfonyl)phenyl]methyl}imidazo[1,2-a]pyridine-6-carboxamide]
A2780 cells; SRB
  IC50: 3.7 nM
NAMPT; NAMPT enzymatic assay
  IC50: 9 nM

## CCOc1ccc(Cl)cc1S(=O)(=O)c1ccc(CNC(=O)c2cc3ccncc3s2)cc1
A2780 cells; SRB
  IC50: 0.5 nM
NAMPT; NAMPT enzymatic reaction
  IC50: 2.7 nM

## O=C(NCc1ccc(S(=O)(=O)c2cccc(N3CCCC3)c2)cc1)c1cnc2nccn2c1
A2780 cells; SRB
  IC50: 4.1 nM
NAMPT; NAMPT enzymatic assay
  IC50: 2.5 nM

## COc1cc(S(=O)(=O)c2ccc(CNC(=O)c3cnc4[nH]ncc4c3)cc2)ccc1C [N-({4-[(3-methoxy-4-methylbenzene)sulfonyl]phenyl}methyl)-1H-pyrazolo[3,4-b]pyridine-5-carboxamide]
A2780 cells; SRB
  IC50: 3.4 nM
NAMPT; NAMPT enzymatic reaction
  IC50: 3.6 nM

## O=C(NCc1ccc(S(=O)(=O)c2ccc(C(F)(F)F)cc2C(F)(F)F)cc1)c1cc2ccncc2s1 [N-[(4-{[2,4-bis(trifluoromethyl)benzene]sulfonyl}phenyl)methyl]thieno[2,3-c]pyridine-2-carboxamide]
A2780 cells; SRB
  IC50: 4.3 nM
NAMPT; NAMPT enzymatic assay
  IC50: 21.5 nM

## Cc1cc(F)cc(S(=O)(=O)c2ccc(CNC(=O)c3cnc4[nH]ncc4c3)cc2)c1
A2780 cells; SRB
  IC50: 5.6 nM
NAMPT; NAMPT enzymatic reaction
  IC50: 9.5 nM

## Cc1ccncc1S(=O)(=O)c1ccc(CNC(=O)c2cc3ccncc3o2)cc1 [N-{[4-(4-methylpyridine-3-sulfonyl)phenyl]methyl}furo[2,3-c]pyridine-2-carboxamide]
A2780 cells; SRB
  IC50: 62 nM
NAMPT; NAMPT enzymatic assay
  IC50: 25.2 nM

## COc1ccc(C(C)=O)cc1S(=O)(=O)c1ccc(CNC(=O)c2cc3ccncc3o2)cc1
A2780 cells; SRB
  IC50: 3.8 nM
NAMPT; NAMPT enzymatic reaction
  IC50: 7.2 nM

## CCc1ccccc1S(=O)(=O)c1ccc(CNC(=O)c2cnc3nccn3c2)cc1
A2780 cells; SRB
  IC50: 24.9 nM
NAMPT; NAMPT enzymatic reaction
  IC50: 2.5 nM

## COc1ccc(C(C)=O)cc1S(=O)(=O)c1ccc(CNC(=O)c2cc3cnccc3[nH]2)cc1 [N-({4-[(5-acetyl-2-methoxybenzene)sulfonyl]phenyl}methyl)-1H-pyrrolo[3,2-c]pyridine-2-carboxamide]
A2780 cells; SRB assay
  IC50: 6 nM
NAMPT; NAMPT enzymatic reaction
  IC50: 20 nM

## Cn1cc(S(=O)(=O)c2ccc(CNC(=O)c3cc4cnccc4[nH]3)cc2)cn1 [N-{[4-(1-methyl-1H-pyrazole-4-sulfonyl)phenyl]methyl}-1H-pyrrolo[3,2-c]pyridine-2-carboxamide]
A2780 cells; SRB assay
  IC50: 123 nM
NAMPT; NAMPT enzymatic reaction
  IC50: 48 nM

## O=C(NCc1ccc(S(=O)(=O)c2cccc(-c3ccc(F)c(F)c3)n2)cc1)c1cc2ccncc2o1 [N-({4-[6-(3,4-difluorophenyl)pyridine-2-sulfonyl]phenyl}methyl)furo[2,3-c]pyridine-2-carboxamide]
A2780 cells; SRB
  IC50: 42.7 nM
NAMPT; NAMPT enzymatic assay
  IC50: 5 nM

## COc1ccc(OC)c(S(=O)(=O)c2ccc(CNC(=O)c3cnc4[nH]ncc4c3)cc2)c1OC [N-({4-[(2,3,6-trimethoxybenzene)sulfonyl]phenyl}methyl)-1H-pyrazolo[3,4-b]pyridine-5-carboxamide]
A2780 cells; SRB
  IC50: 66.3 nM
NAMPT; NAMPT enzymatic reaction
  IC50: 79.7 nM

## O=C(NCc1ccc(S(=O)(=O)c2cccc(N3CCOCC3)c2)cc1)c1ccc2ncsc2c1 [N-[(4-{[3-(morpholin-4-yl)benzene]sulfonyl}phenyl)methyl]-1,3-benzothiazole-6-carboxamide]
A2780 cells; SRB
  IC50: 1000 to 10000 nM
NAMPT; NAMPT enzymatic assay
  IC50: 40.1 nM

## O=C(NCc1ccc(S(=O)(=O)c2cc(O)ccc2OC(F)(F)F)cc1)c1cc2ccncc2o1
A2780 cells; SRB
  IC50: 11.5 nM
NAMPT; NAMPT enzymatic assay
  IC50: 6.4 nM

## O=C(NCc1ccc(S(=O)(=O)c2cc(F)cc(Cl)c2)cc1)c1cnc2[nH]ncc2c1
A2780 cells; SRB
  IC50: 6 nM
NAMPT; NAMPT enzymatic reaction
  IC50: 13.3 nM

## Cc1ccc(Cl)cc1S(=O)(=O)c1ccc(CNC(=O)c2cnc3nccn3c2)cc1
A2780 cells; SRB
  IC50: 4.3 nM
NAMPT; NAMPT enzymatic reaction
  IC50: 3.1 nM

## COc1cc(C(F)(F)F)ccc1S(=O)(=O)c1ccc(CNC(=O)c2cc3cnccc3[nH]2)cc1 [N-[(4-{[2-methoxy-4-(trifluoromethyl)benzene]sulfonyl}phenyl)methyl]-1H-pyrrolo[3,2-c]pyridine-2-carboxamide]
A2780 cells; SRB assay
  IC50: 5 nM
NAMPT; NAMPT enzymatic reaction
  IC50: 22 nM

## O=C(NCc1ccc(S(=O)(=O)c2cccc(OC(F)(F)F)c2)cc1)c1ccc2nccn2c1 [N-[(4-{[3-(trifluoromethoxy)benzene]sulfonyl}phenyl)methyl]imidazo[1,2-a]pyridine-6-carboxamide]
A2780 cells; SRB
  IC50: 3.18 nM
NAMPT; NAMPT enzymatic assay
  IC50: 8.73 nM

## CCCCOc1cccc(S(=O)(=O)c2ccc(CNC(=O)c3ccc4nccn4c3)cc2)c1
A2780 cells; SRB
  IC50: 18 nM
NAMPT; NAMPT enzymatic reaction
  IC50: 4.7 nM

## O=C(NCc1ccc(S(=O)(=O)c2cccc(N3CCCC3)c2)cc1)c1cc2ccncc2o1
A2780 cells; SRB
  IC50: 7.4 nM
NAMPT; NAMPT enzymatic assay
  IC50: 8.2 nM

## N#Cc1ccccc1S(=O)(=O)c1ccc(CNC(=O)c2cc3cnccc3[nH]2)cc1 [N-({4-[(2-cyanobenzene)sulfonyl]phenyl}methyl)-1H-pyrrolo[3,2-c]pyridine-2-carboxamide]
A2780 cells; SRB
  IC50: 62.9 nM
NAMPT; NAMPT enzymatic reaction
  IC50: 25.3 nM

## O=C(NCc1ccc(S(=O)(=O)c2ccc(-n3cccn3)c(F)c2)cc1)c1cc2cnccc2[nH]1 [N-[(4-{[3-fluoro-4-(1H-pyrazol-1-yl)benzene]sulfonyl}phenyl)methyl]-1H-pyrrolo[3,2-c]pyridine-2-carboxamide]
A2780 cells; SRB assay
  IC50: 4 nM
NAMPT; NAMPT enzymatic reaction
  IC50: 11 nM

## COc1ccc(F)c(S(=O)(=O)c2ccc(CNC(=O)c3cc4ccncc4o3)cc2)c1
A2780 cells; SRB
  IC50: 63.7 nM
NAMPT; NAMPT enzymatic reaction
  IC50: 26.8 nM
